Data on two molecules can be found in patent US20250049758A1, “Danegaptide Formulation for Application in the Eye” (Breye Therapeutics APS, priority 2021, published 2025).

Entries after “also recorded” stand apart in the source; their conditions may differ. Where a name gives a salt, the structure may show the parent alone.

The nature of one data set: Water solubility. Format: physicochemical. The source says: Danegaptide as a HCL salt is water-soluble. To investigate the viability of this drug, a melt extrusion formulation strategy was chosen, and six different formulations based on various viable excipients feasible for the melt extrusion process were manufactured with approximately 20% drug load.
Data set [1] can be described thus: Dissolution testing of prototype formulations in 0.9% NaCl at 37° C., HPLC. It counts as physicochemical. The note with it: prolonged storage of the dosage form at 37° C. The method, then: Described below is the dissolution behavior of Danegaptide when formulated in 6 different melt extrusion formulations. The formulations were manufactured with a drug load of about 20%. The formulations were exposed to physiological salt solutions at 37° C. and stored for several months. The media was changed regularly and analyzed for content of Danegaptide.
The dissolution process was investigated for each of the 6 manufactured prototypes by inserting the prototypes into a 0.9% NaCl solution and test the dissolution of Danegaptide over time by HPLC. The experiment was conducted over 170 days.
Fifteen dose units of each prototype was weighed and were wrapped into a permeable filter bag consisting of empty triangular tea bags made of polymeric material, with a mesh size of less than 0.5 μm. The bags were each inserted into glass vials and 10 ml 0.9% NaCl solution media were added to each vial. The vials were placed in a water bath at 37° C. At regular intervals the media was drained and 10 ml new media was added and the vials were returned to the water bath. […] One day delivery periods were also tested several times during the dissolution period. […] In addition, an informative impurity profile was recorded. In relation to this, the pH value of each collected media sample was determined. […]
The Danegaptide content was quantified to a Danegaptide reference substance. […]

In data set [2] the test system is retinal endothelial cell coupling. The note with it: in vitro; cited from earlier work.
Another data set is described as follows: Toxicology program. Format: in vivo. The note with it: high concentration levels administered locally in selected tissues or systemically. The text has this: However, the protective effects of danegaptide from stress-induced cell-cell uncoupling or cellular loss may be diminished or lost at higher concentrations of danegaptide.
A further data set relates to Gap-Junction coupling. Put plainly: In vitro and in vivo pre-clinical studies, Gap-Junction coupling under stressed conditions.
For the next data set, the system named is retinal vascular cells. The note with it: cited from earlier work.
A further data set relates to vascular leakage. The note with it: cited from earlier work.

For `NCC(=O)N1C[C@H](NC(=O)c2ccccc2)C[C@H]1C(=O)O` [Danegaptide as a HCL salt], in the data set “Water solubility”, the Water solubility result is recorded as “water-soluble”.

`NCC(=O)N1C[C@H](NC(=O)c2ccccc2)C[C@H]1C(=O)O` [Danegaptide, (2S,4R)-1-(2-aminoacetyl)-4-benzoylamino-pyrrolidine-2-carboxylic acid]: the “Degradation of Danegaptide during the dissolution period (HPLC impurity profile)” value in data set [1] is listed as “probably only happened to a smaller extent; also recorded: did not indicate a significant degradation pattern”. In addition, the “Concentration giving optimal protection from high-glucose induced cell-cell uncoupling” value in data set [2] is 50 to 100 nM. Further, in “Toxicology program”, the Toxicity entry is “no toxicity concerns”. For the same molecule, the “Optimal concentration in the target tissue, such as the retina, to maintain Gap-Junction coupling” value in the data set with Gap-Junction coupling lay within 50 to 100 nM. In the data set on retinal vascular cells (high glucose condition), the “Cell-cell GJ uncoupling” value is listed as “prevent cell-cell GJ uncoupling”. For the same molecule, the High glucose-induced apoptosis entry in the data set with retinal vascular cells (retinal vascular cells) is on record as “prevent high glucose-induced apoptosis”. Also, the Vascular leakage result in the data set on vascular leakage is given as “reduce vascular leakage”.
